Measured values: patent US20200330444A1, “[…] FOR TREATING PAIN AND RELATED DISEASES AND CONDITIONS, AND COMPOSITIONS AND METHODS THEREOF” (NeuForm Pharmaceuticals, Inc., priority 2016, published 2020)

Experiments:
[1] = target: CYP2D6 (Homo sapiens, UniProt P10635); test: In vitro metabolic stability on incubation with CYP2D6; assay type: in vitro ADME
Description: (§1) The stability time course samples were prepared and extracted immediately by protein precipitation method using acetonitrile containing 575 ng/mL carbutamide, 100 ng/mL loxapine and 10 ng/mL longdaysin as the internal standard (IS). The samples were analyzed on a Waters Acquity UPLC system coupled with a mass dspectrometer. The peak area ratios of respective extracted ion chromatograms were used for relative comparison.
(§2) 300 μL of the above 2.0 μM combo solutions were added into 1.5 mL of Eppendof tubes. The samples were put in 37° C. incubator for 10 minutes. Then 300 of 37° C. pre-warmed 0.35 mg/mL of human liver microsome (or 37.5 pmol/mL CYP3A4, or 25 pmol/mL CYP2D6) and 2.6 mM NADPH in 100 mM potassium phosphate buffer pH 7.4 (contains 3.3 mM MgCl2) was added to initiate the enzyme activity. 50.0 μL of the reaction mixture was put into 150 μL of acetonitrile with 100 ng/mL loxapine, 10 ng/ml longdaysin (IS) to stop the reaction at 0′, 15′, 30′, 60′, 2 hours, 3 hours and 4 hours. The samples were vortexed and centrifuged at 13,000 g for approximately 5 min, then supernatants were taken and stored in −20° C. freezer. After the last samples were taken and they were placed in −20° C. at least 1 hour. All samples were put into a refrigerator at approximate 4° C. for 30 min. The samples were vortexed. […]

[2] = In vitro metabolic stability in human liver microsome suspensions; assay type: in vitro ADME
Description: as §1, §2

Sequence of CYP2D6 (P10635 whole entry): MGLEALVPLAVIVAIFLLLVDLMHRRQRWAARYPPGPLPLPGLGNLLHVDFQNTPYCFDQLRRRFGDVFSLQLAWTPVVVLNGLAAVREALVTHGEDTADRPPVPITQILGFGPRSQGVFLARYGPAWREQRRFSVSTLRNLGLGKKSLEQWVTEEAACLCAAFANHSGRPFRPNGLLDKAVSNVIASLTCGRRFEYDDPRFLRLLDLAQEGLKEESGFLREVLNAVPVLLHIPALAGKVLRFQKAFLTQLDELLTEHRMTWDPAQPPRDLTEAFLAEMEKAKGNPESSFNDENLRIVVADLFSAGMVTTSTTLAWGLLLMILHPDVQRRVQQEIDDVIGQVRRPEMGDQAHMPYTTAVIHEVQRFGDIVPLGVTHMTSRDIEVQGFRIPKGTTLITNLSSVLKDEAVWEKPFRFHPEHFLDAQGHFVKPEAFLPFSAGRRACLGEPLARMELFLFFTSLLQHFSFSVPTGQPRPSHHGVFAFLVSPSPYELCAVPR

Row | SMILES | Half-life increased by, vs oliceridine [1] | Concentration after incubation higher than that of the non-deuterated compound ([2]; human liver microsome, 60 min) | Half-life increased by, vs oliceridine ([2]; incubation with human liver microsome)
1 | [2H]C([2H])(C[C@@]1(c2ccccn2)CCOC2(CC([2H])([2H])C([2H])([2H])C2)C1)NCc1sccc1OC [D6-Oliceridine-a] | 200% | 32% | 29%
2 | [2H]C([2H])(C[C@@]1(c2ccccn2)CC([2H])([2H])OC2(CC([2H])([2H])C([2H])([2H])C2)C1)NCc1sccc1OC [D8-oliceridine] | 200% |  | 
